Experimental data published in publication PMC6367342, “The major allergen Der p 2 is a cholesterol binding protein” (Scientific Reports, 2019).

Target: T1, rDer f 2 (Dermatophagoides farinae, UniProt Q00855)
T1 construct: gene DERF2
T1 sequence (Q00855 18-146): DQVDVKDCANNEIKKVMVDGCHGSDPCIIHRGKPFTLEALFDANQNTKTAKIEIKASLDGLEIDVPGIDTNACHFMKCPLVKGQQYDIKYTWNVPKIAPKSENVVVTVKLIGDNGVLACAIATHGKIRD
Experiment: lipid ELISA on immobilized lipid, polyclonal anti-allergen IgG detection
Type: binding
Details: 0.5 ug/mL protein; lipid coated 0.02-6.40 nmol/well; PBS, 1% BSA block; 1 h

## CC(C)CCC[C@@H](C)[C@H]1CC[C@H]2[C@@H]3CC=C4C[C@@H](O)CC[C@]4(C)[C@H]3CC[C@]12C [cholesterol]
  lipid ELISA on immobilized lipid, polyclonal anti-allergen IgG detection: also showed dose-dependent binding to cholesterol, but not POPG
